# Key:
# Type in all cases: biochemical
# [1] = test system: β2 fraction (fibrinogen) of plasma; assay: Electrophoresis of plasma that had been incubated with vancomycin
# Description: 950 μl P-Pool were incubated with 50 μl 0-200 mM (0-10 mM final conc.) vancomycin for 5 min (RT). Then electrophoreses of the samples and of the solubilized precipitate of 2.10. were performed and the total protein concentrations in the treated samples were determined.
# plasmatic fibrinogen = target: T1, plasmatic fibrinogen (Homo sapiens, UniProt P02671+P02675+P02679)
# T1 construct: pooled patient plasma (P-Pool, n=32 single plasmas); from tissue; host or cells: pooled citrated patient plasma (P-Pool, Fbgen-Pool-Plasma)
# T1 sequence (P02671 20-644 isoform P02671-2 limits assumed): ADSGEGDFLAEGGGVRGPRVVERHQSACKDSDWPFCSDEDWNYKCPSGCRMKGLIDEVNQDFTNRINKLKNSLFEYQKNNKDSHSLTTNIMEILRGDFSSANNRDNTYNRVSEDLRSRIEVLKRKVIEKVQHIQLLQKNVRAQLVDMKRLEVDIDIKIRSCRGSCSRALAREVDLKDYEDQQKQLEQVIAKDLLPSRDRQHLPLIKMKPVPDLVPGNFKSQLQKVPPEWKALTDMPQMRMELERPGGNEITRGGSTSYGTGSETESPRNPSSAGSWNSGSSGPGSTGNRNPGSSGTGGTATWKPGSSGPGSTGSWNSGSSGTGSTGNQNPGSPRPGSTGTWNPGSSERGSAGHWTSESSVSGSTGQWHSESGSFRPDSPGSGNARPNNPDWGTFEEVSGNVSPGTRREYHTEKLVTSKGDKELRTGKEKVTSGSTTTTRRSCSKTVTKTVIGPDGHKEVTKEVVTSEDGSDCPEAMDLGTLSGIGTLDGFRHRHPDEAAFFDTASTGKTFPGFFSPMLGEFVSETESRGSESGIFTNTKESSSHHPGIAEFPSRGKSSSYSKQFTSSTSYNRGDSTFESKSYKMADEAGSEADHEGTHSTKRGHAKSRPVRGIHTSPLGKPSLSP
# T1 sequence (P02675 31-491): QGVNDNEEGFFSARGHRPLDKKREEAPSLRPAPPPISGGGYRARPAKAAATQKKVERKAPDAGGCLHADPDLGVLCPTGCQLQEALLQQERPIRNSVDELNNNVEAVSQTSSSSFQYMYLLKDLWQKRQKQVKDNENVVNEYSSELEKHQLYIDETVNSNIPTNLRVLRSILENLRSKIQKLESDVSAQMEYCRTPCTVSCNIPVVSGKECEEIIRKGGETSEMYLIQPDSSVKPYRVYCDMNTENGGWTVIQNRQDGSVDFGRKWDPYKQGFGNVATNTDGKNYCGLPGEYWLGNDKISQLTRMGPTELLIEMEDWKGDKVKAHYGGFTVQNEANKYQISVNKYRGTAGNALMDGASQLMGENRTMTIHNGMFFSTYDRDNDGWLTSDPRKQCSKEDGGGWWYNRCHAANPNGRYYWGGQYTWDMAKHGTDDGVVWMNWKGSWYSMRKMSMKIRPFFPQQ
# T1 sequence (P02679 27-437 isoform P02679-2 limits assumed): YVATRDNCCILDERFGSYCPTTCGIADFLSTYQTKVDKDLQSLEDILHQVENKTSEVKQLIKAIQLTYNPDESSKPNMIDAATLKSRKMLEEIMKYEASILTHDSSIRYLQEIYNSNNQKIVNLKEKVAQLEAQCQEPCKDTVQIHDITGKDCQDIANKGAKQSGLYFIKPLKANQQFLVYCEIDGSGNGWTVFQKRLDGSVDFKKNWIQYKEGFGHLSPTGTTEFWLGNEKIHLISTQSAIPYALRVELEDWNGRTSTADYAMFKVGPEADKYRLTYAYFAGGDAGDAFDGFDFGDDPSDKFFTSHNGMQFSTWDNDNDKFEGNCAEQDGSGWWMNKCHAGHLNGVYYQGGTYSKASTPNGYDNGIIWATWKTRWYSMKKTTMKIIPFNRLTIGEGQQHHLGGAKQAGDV
# Description: 25 μl of 143% (4.0 g/l) P-Pool were incubated with 25 μl 0-50 mM vancomycin in PBS, 50 μl PBS, 0.1% Triton X 100® and 50 μl 850 mM KCl in H2O for 1 min (RT). The turbidity at 405 nm was determined. […] For pH-studies 5 ml P-Pool were mixed with 5 ml PBS and 0-1750 μl 1 M NaHCO3, pH 8.6.
# 5 ml P-Pool were incubated with 5 ml 4.4 mM vancomycin in PBS for 3 min (RT). Then the reaction mixture was centrifuged at 2500 g (4000 rpm) for 10 min. The supernatant was separated from the precipitate. The precipitate was not washed or was washed 3× with dest. H2O (resuspension, centrifugation, resuspension, . . . ). The unwashed precipitate was solubilized by addition of 500 μl 1 M NaHCO3, pH 8.6, and 4500 μl PBS; the washed precipitate was solubilized by addition of 300 μl 1 M NaHCO3 to 1700 μl in dest. H2O resuspended precipitate. 3 preparations of washed precipitate were also dried at room temperature and the dried precipitates were weighed. The solubilized precipitate and the supernatant were functionally analyzed for fibrinogen. 100 μl 1 M NaHCO3, pH 8.6 were added to 400 μl of the solubilized unwashed precipitate and this solution, the solubilized washed precipitate and the supernatant were analyzed for total protein, albumin concentration, and pseudocholinesterase activity in a Hitachi 917 analyzer, Roche, Basel, Switzerland and for vancomycin in an Integra 800 (Fluorescence Polarisation Immuno Assay); electrophoreses were performed in an agarose gel-based Hydrasis LC-Electrophoresis system (Sebia, Fulda, Germany). For control, 1 ml pooled serum was incubated with 1 ml 4.4 mM vancomycin in PBS, and the vancomycin conc. was determined.
# t-PA = assay: Stimulation of t-PA by vancomycin-precipitated plasma, plasma system
# Description: 25 μl P-Pool were incubated with 25 μl 0-50 mM vancomycin in PBS and 50 μl 1000 IU/ml t-PA in PBS, 0.1% Triton X 100® and 25 μl 0 mM or 15 mM chloramine-T® for 30 min (RT). Then 25 μl 2.7 mM Vai-Leu-Lys-pNA, 1.7 M KCl were added and the resulting plasmin activity was determined by measuring linear absorbance increase/min RT in a microtiterplate reader.
# [2] = after 1+1 incubation with 4.4 mM vancomycin in PBS
structure (smiles),measurement,setting,value
CN[C@H](CC(C)C)C(=O)N[C@H]1C(=O)N[C@@H](CC(N)=O)C(=O)N[C@H]2C(=O)N[C@H]3C(=O)N[C@H](C(=O)N[C@H](C(=O)O)c4cc(O)cc(O)c4-c4cc3ccc4O)[C@H](O)c3ccc(c(Cl)c3)Oc3cc2cc(c3O[C@@H]2O[C@H](CO)[C@@H](O)[C@H](O)[C@H]2O[C@H]2C[C@](C)(N)[C@H](O)[C@H](C)O2)Oc2ccc(cc2Cl)[C@H]1O [vancomycin],β2 fraction,[1]; 0.29 mM vancomycin,10.6%
same,β2 fraction,[1]; 0.44 mM vancomycin,10.4%
same,β2 fraction,[1]; 0.66 mM vancomycin,8.0%
same,β2 fraction,[1]; 0.99 mM vancomycin,6.4%
same,β2 fraction,[1]; 1.48 mM vancomycin,5.2%
same,β2 fraction,[1]; 2.22 mM vancomycin,5.5%
same,β2 fraction,[1]; 5 mM vancomycin,0%
same,β2 fraction,[1]; 10 mM vancomycin,0%
same,fibrinogen precipitated,plasmatic fibrinogen; 4.4 mM vancomycin,84%
same,fibrinogen remained in the plasma,plasmatic fibrinogen; 4.4 mM vancomycin,16%
same,fibrinogen remained of initial 4.0 g/l,"plasmatic fibrinogen; 4.4 mM vancomycin, corrected for 1+1 dilution",0.64 g/L
same,fibrinogen conc. in the supernatant,plasmatic fibrinogen; 1 part plasma and 1 part 4.4 mM vancomycin in PBS,0.32 g/L
same,increase of turbidity of citrated plasma,"plasmatic fibrinogen; 25 μl 0-50 mM vancomycin, 25 μl P-Pool, 1 min RT",up to 20 fold
same,vancomycin found in pooled serum,plasmatic fibrinogen; [2],2.1 mM
same,vancomycin found in supernatant of pooled plasma,plasmatic fibrinogen; [2],0.17 mM
same,vancomycin attached to 5 μM precipitating fibrinogen,plasmatic fibrinogen; of 2.2 mM vancomycin in the reaction mixture,80 µM
same,vancomycin molecules/fibrinogen molecule,plasmatic fibrinogen; washed precipitate,16
same,stimulation of t-PA,"t-PA; 1 part plasma with 1 part 1.5-5 mM vancomycin, oxidation with 1 part 15 mM chloramine-T",up to 20 fold
same,increase of t-PA activity,"t-PA; without oxidation, 2 mM vancomycin, final incubation 158 min (RT)",2.5 fold

# Source: US7741124B2, “Detection procedures for fibrinogen and/or fibrinogen derivatives” (priority 2003, dated 2010)
